Measurements as given in ChEMBL document CHEMBL3885881, “DrugMatrix”.

Organism: Rattus norvegicus
Test: DrugMatrix - Regimen: Daily Repeat
Type: toxicity, organism-based, Sprague-Dawley
Set-up: regimen Daily Repeat, gender Male, age 6-8 weeks
Conditions: in vivo, vehicle 100 % SALINE; for ABSOLUTE BASOPHIL / ABSOLUTE EOSINOPHIL / ABSOLUTE LYMPHOCYTE / ABSOLUTE MONOCYTE / ABSOLUTE SEGMENTED NEUTROPHIL / BASOPHIL / EOSINOPHIL / ERYTHROCYTE COUNT / HEMATOCRIT / HEMOGLOBIN / LEUKOCYTE COUNT / LYMPHOCYTE / MEAN CORPUSCULAR HEMOGLOBIN / MEAN CORPUSCULAR HEMOGLOBIN CONCENTRATION / MEAN CORPUSCULAR VOLUME / MONOCYTE / NEUTROPHIL / NUCLEATED RED BLOOD CELLS / PLATELET COUNT: tissue Blood
[1] = iv, 0 mg/kg, 72 h, dose level Control, time 3 day
[2] = iv, 0 mg/kg, 72 h, tissue Plasma, dose level Control, time 3 day
[3] = iv, 0 mg/kg, 120 h, dose level Control, time 5 day
[4] = iv, 0 mg/kg, 120 h, tissue Plasma, dose level Control, time 5 day
[5] = iv, 6 mg/kg, 72 h, dose level Low, time 3 day
[6] = iv, 6 mg/kg, 72 h, tissue Plasma, dose level Low, time 3 day

Sequence: CARBOPLATIN
- TOTAL PROTEIN (ip, 5 mg/kg, […], tissue Plasma, route intraperitoneal, dose level High, time 28 day): 6.92 G/DL
- ABSOLUTE BASOPHIL [1]: 0 CELLS/uL
- ABSOLUTE EOSINOPHIL [1]: 0 CELLS/uL
- ABSOLUTE LYMPHOCYTE [1]: 7026.17 CELLS/uL
- ABSOLUTE MONOCYTE [1]: 44.33 CELLS/uL
- ABSOLUTE SEGMENTED NEUTROPHIL [1]: 379.5 CELLS/uL
- BASOPHIL [1]: 0%
- EOSINOPHIL [1]: 0%
- ERYTHROCYTE COUNT [1]: 5.49 x10E6/uL
- HEMATOCRIT [1]: 33.67%
- HEMOGLOBIN [1]: 13.17 G/DL
- LEUKOCYTE COUNT [1]: 7.45 x10E3/uL
- LYMPHOCYTE [1]: 94%
- MEAN CORPUSCULAR HEMOGLOBIN [1]: 24.03 pg
- MEAN CORPUSCULAR HEMOGLOBIN CONCENTRATION [1]: 39.15 G/DL
- MEAN CORPUSCULAR VOLUME [1]: 61.4 fL
- MONOCYTE [1]: 0.67%
- NEUTROPHIL [1]: 5.33%
- NUCLEATED RED BLOOD CELLS [1]: 0.17 /100WBC
- PLATELET COUNT [1]: 1062.5 x10E3/uL
- ALANINE AMINOTRANSFERASE [2]: 53.17 u/L
- ALKALINE PHOSPHATASE [2]: 339.83 u/L
- ASPARTATE AMINOTRANSFERASE [2]: 83.33 u/L
- BLOOD UREA NITROGEN [2]: 16 mg/dL
- CARBON DIOXIDE [2]: 32.5 mmol/L
- CHLORIDE [2]: 98 MEQ/L
- CHOLESTEROL [2]: 74.67 mg/dL
- CREATINE PHOSPHOKINASE [2]: 284 u/L
- CREATININE [2]: 0.2 mg/dL
- GLUCOSE [2]: 128.67 mg/dL
- LACTATE DEHYDROGENASE [2]: 110.33 u/L
- LIPASE [2]: 9 u/L
- PHOSPHORUS [2]: 11.73 mg/dL
- POTASSIUM [2]: 6.34 MEQ/L
- TOTAL BILIRUBIN [2]: 0.18 mg/dL
- TOTAL PROTEIN [2]: 6.2 G/DL
- URIC ACID [2]: 1.28 mg/dL
- ABSOLUTE BASOPHIL [3]: 0 CELLS/uL
- ABSOLUTE EOSINOPHIL [3]: 26.67 CELLS/uL
- ABSOLUTE LYMPHOCYTE [3]: 8334.17 CELLS/uL
- ABSOLUTE MONOCYTE [3]: 29.5 CELLS/uL
- ABSOLUTE SEGMENTED NEUTROPHIL [3]: 593 CELLS/uL
- BASOPHIL [3]: 0%
- EOSINOPHIL [3]: 0.33%
- ERYTHROCYTE COUNT [3]: 5.44 x10E6/uL
- HEMATOCRIT [3]: 33.77%
- HEMOGLOBIN [3]: 13.05 G/DL
- LEUKOCYTE COUNT [3]: 8.98 x10E3/uL
- LYMPHOCYTE [3]: 92.33%
- MEAN CORPUSCULAR HEMOGLOBIN [3]: 24 pg
- MEAN CORPUSCULAR HEMOGLOBIN CONCENTRATION [3]: 38.67 G/DL
- MEAN CORPUSCULAR VOLUME [3]: 62.05 fL
- MONOCYTE [3]: 0.33%
- NEUTROPHIL [3]: 7%
- NUCLEATED RED BLOOD CELLS [3]: 0 /100WBC
- PLATELET COUNT [3]: 987 x10E3/uL
- ALANINE AMINOTRANSFERASE [4]: 43.5 u/L
- ALKALINE PHOSPHATASE [4]: 310.17 u/L
- ASPARTATE AMINOTRANSFERASE [4]: 76.67 u/L
- BLOOD UREA NITROGEN [4]: 17 mg/dL
- CHLORIDE [4]: 100.33 MEQ/L
- CHOLESTEROL [4]: 69.33 mg/dL
- CREATINE PHOSPHOKINASE [4]: 218.67 u/L
- CREATININE [4]: 0.22 mg/dL
- GLUCOSE [4]: 155.17 mg/dL
- PHOSPHORUS [4]: 11.2 mg/dL
- POTASSIUM [4]: 5.5 MEQ/L
- TOTAL BILIRUBIN [4]: 0.18 mg/dL
- TOTAL PROTEIN [4]: 5.97 G/DL
- URIC ACID [4]: 0.88 mg/dL
- ABSOLUTE BASOPHIL [5]: 0 CELLS/uL
- ABSOLUTE EOSINOPHIL [5]: 20.67 CELLS/uL
- ABSOLUTE LYMPHOCYTE [5]: 6996.67 CELLS/uL
- ABSOLUTE MONOCYTE [5]: 29.33 CELLS/uL
- ABSOLUTE SEGMENTED NEUTROPHIL [5]: 353.33 CELLS/uL
- BASOPHIL [5]: 0%
- EOSINOPHIL [5]: 0.33%
- ERYTHROCYTE COUNT [5]: 5.49 x10E6/uL
- HEMATOCRIT [5]: 35.33%
- HEMOGLOBIN [5]: 13.67 G/DL
- LEUKOCYTE COUNT [5]: 7.4 x10E3/uL
- LYMPHOCYTE [5]: 94.67%
- MEAN CORPUSCULAR HEMOGLOBIN CONCENTRATION [5]: 38.67 G/DL
- MONOCYTE [5]: 0.33%
- NEUTROPHIL [5]: 4.67%
- NUCLEATED RED BLOOD CELLS [5]: 0 /100WBC
- PLATELET COUNT [5]: 803.67 x10E3/uL
- ALANINE AMINOTRANSFERASE [6]: 44.67 u/L
- ALBUMIN [6]: 4.3 G/DL
- ALKALINE PHOSPHATASE [6]: 291.67 u/L
- ASPARTATE AMINOTRANSFERASE [6]: 75.67 u/L
- CARBON DIOXIDE [6]: 32 mmol/L
- CHLORIDE [6]: 97.67 MEQ/L
- CHOLESTEROL [6]: 72.33 mg/dL
- CREATINE PHOSPHOKINASE [6]: 262.33 u/L
- CREATININE [6]: 0.2 mg/dL
- GLUCOSE [6]: 147.33 mg/dL
- LACTATE DEHYDROGENASE [6]: 105 u/L
- LIPASE [6]: 9 u/L
- POTASSIUM [6]: 6.04 MEQ/L
- TOTAL BILIRUBIN [6]: 0.17 mg/dL
